Data on two compounds can be found in ChEMBL document CHEMBL1122093, “Preparation of the alpha and beta anomers of 9-(3,5-dideoxy-D-glycero-pent-4-enofuranosyl)adenine and their activity with leukemia L1210 cells in vitro” (1982).

Experiment [1] concerns L1210. The experiment in a line: In vitro for the inhibitory activity against L1210 leukemia cells at a concentration 3.2x10 E -4 M. It counts as functional. Particulars: Mus musculus.
The test system of experiment [2] is L1210. The experiment in a line: In vitro for the inhibitory activity against L1210 leukemia cells at a concentration 3.4x10 E -4 M. Particulars: Mus musculus. The experiment is classed as functional.

The structures appear in SMILES notation.

`C=C1C[C@@H](O)[C@H](n2cnc3c(N)ncnc32)O1` showed an inhibition at 320 µM in the experiment on L1210 [1] of 50%.

For the compound `C=C1C[C@@H](O)[C@@H](n2cnc3c(N)ncnc32)O1`, the inhibition at 340 µM with L1210 [2] was determined as 50%.

In general, inhibition refers to the share of the control response that was lost under treatment.
